In patent publication US20030134292A1, “Thermostable DNA polymerases and methods of making same” (priority 2001, published 2003):

B1: T4 gene 32 Protein: T4 gene 32 Protein (protein, UniProt P03695 1-301, looked up)
Single-stranded DNA-binding …: MFKRKSTAELAAQMAKLNGNKGFSSEDKGEWKLKLDNAGNGQAVIRFLPSKNDEQAPFAILVNHGFKKNGKWYIETCSSTHGDYDSCPVCQYISKNDLYNTDNKEYSLVKRKTSYWANILVVKDPAAPENEGKVFKYRFGKKIWDKINAMIAVDVEMGETPVDVTCPWEGANFVLKVKQVSGFSNYDESKFLNQSAIPNIDDESFQKELFEQMVDLSEMTSKDKFKSFEELNTKFGQVMGTAVMGGAAATAAKKADKVADDLDAFNVDDFNTKTEDDFMSSSSGSSSSADDTDLDDLLNDL

Assays:
Format in all cases: biochemical
[1] = molecular target: T1, Taq Δ271 F667Y E681W (polymerase B) (Thermus aquaticus, UniProt P19821, E681W/F272M/F667Y); assay: DNA polymerase activity assay with detergent or additive, Taq Δ271 F667Y E681W purified without detergent
T1 construct: made in house; host or cells: E. coli
Method: (§1) DNA polymerase activity was measured by running reactions of 50 μL containing 25 mM TAPS (tris-hydroxymethyl-methylaminopropane sulfonic acid) buffer, pH 9.3 (measured at 25° C.), 50 mM KCl, 2 mM MgCl2, 1 mM 2-mercaptoethanol, 0.2 mM each of dGTP, dCTP, dTTP, 0.2 mM [α-^33P]-dATP (0.05-0.1 Ci/mmol) and 0.4 mg/mL activated salmon sperm DNA. The reaction mixture (45 μL) was pre-heated to 74° C. and diluted polymerase (5 μL) added with thorough mixing. After 10 minutes of further incubation at 74° C., the reaction was stopped by the addition of 10 μL of 60 mM EDTA and the entire mixture placed at 0° C. Acid-precipitable radioactivity was determined on an aliquot ([…]) by diluting with 1 ml of 2 mM EDTA containing 0.05 mg/ml salmon sperm DNA and adding 1 mL of 20% (w/v) trichloroacetic acid, 2% (w/v) sodium pyrophosphate (Na4P2O7 10H2O) and incubating on ice for at least 15 minutes. Precipitated DNA was collected by filtering through 2.4 cm GFC filter disks (Schleichter and Schuell) and washed 7 times with 5ml of with 1 N HCl, 0.1 M sodium pyrophosphate. The filter was placed in 3 ml of aqueous scintillation counting fluid and ^33P-specific radioactivity determined by scintillation counting.
(§2) For the assays presented in Tables 5 and 6, the polymerase was diluted 10-5000 fold in a buffer containing 25 mM Tris-HCl pH 8.0, 50 mM KCl, 1 mM 2-mercaptoethanol, and the indicated concentration of detergent or other additive. Where possible, only reactions which incorporated 20- 100 pmol of dAMP in 10 minutes were used for calculation of activity.

[2] = molecular target: T2, Taq Δ271 F667Y (polymerase A) (Thermus aquaticus, UniProt P19821, F272M/F667Y); assay: DNA polymerase activity assay with detergent or additive, Taq Δ271 F667Y purified without detergent
T2 construct: made in house; host or cells: E. coli
Method: as §1, §2

[3] = molecular target: T3, Tth Δ273 F668Y (polymerase C) (Thermus thermophilus, UniProt P52028, F274M/F669Y); assay: DNA polymerase activity assay with detergent or additive, Tth Δ273 F668Y purified without detergent
T3 construct: made in house; host or cells: E. coli
Method: as §1, §2

[4] = additive final concentration 0.01% (w/v)
[5] = additive final concentration 0.05% (w/v)
[6] = additive final concentration 0.1% (w/v)
[7] = additive final concentration 0.001% (w/v) in assay reaction mixture
[8] = additive final concentration 0.5% (w/v)
[9] = additive final concentration 0.85% (w/v)
[10] = additive final concentration 60 μg/ml
[11] = additive final concentration 20 μg/ml
[12] = additive final concentration 100 μg/ml

T2 sequence (P19821 272-832 F272M/F667Y): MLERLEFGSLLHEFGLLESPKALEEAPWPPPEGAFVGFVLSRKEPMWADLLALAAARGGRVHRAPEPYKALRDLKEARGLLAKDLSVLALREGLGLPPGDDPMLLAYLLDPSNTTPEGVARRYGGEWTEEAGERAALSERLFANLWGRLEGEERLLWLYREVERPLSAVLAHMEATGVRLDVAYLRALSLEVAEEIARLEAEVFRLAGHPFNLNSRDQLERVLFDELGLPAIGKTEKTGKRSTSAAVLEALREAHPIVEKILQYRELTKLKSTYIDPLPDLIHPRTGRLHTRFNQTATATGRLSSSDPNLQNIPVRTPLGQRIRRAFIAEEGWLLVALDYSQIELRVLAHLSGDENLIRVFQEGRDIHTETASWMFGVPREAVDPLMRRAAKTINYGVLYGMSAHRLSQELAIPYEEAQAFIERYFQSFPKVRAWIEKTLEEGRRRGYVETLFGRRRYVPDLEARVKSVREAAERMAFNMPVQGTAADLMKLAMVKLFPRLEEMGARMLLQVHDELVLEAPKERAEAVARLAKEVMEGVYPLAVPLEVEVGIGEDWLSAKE
T3 sequence (P52028 274-834 F274M/F669Y): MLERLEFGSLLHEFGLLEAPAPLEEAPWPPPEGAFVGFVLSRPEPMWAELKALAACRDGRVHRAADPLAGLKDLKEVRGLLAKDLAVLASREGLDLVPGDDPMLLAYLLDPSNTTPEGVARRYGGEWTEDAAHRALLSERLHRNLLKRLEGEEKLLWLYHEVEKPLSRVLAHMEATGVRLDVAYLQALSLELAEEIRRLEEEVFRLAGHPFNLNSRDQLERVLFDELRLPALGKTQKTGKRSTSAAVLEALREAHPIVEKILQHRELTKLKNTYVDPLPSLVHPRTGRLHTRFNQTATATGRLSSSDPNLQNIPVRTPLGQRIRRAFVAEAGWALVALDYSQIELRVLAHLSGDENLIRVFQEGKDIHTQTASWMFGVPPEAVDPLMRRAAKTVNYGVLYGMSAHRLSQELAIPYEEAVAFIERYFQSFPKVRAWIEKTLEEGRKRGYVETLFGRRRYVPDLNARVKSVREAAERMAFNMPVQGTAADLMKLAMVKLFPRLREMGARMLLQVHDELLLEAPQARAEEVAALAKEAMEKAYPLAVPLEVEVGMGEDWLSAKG
T1 sequence (P19821 272-832 F272M/F667Y/E681W): as the sequence (P19821 272-832 F272M/F667Y) above, with E410W counted along it

Molecule	Taq Δ271 F667Y E681W activity relative to 0.5% each NP-40 and Tween 20 [1, 4]	Taq Δ271 F667Y E681W activity relative to 0.5% each NP-40 and Tween 20 [1, 5]	Taq Δ271 F667Y E681W activity relative to 0.5% each NP-40 and Tween 20 [1, 6]	Taq Δ271 F667Y activity relative to 0.5% each NP-40 and Tween 20 [2, 4]	Taq Δ271 F667Y activity relative to 0.5% each NP-40 and Tween 20 [2, 5]	Taq Δ271 F667Y activity relative to 0.5% each NP-40 and Tween 20 [2, 6]	Tth Δ273 F668Y activity relative to 0.5% each NP-40 and Tween 20 [3, 4]	Tth Δ273 F668Y activity relative to 0.5% each NP-40 and Tween 20 [3, 5]	Tth Δ273 F668Y activity relative to 0.5% each NP-40 and Tween 20 [3, 6]	also measured
C[C@H](CCC(=O)NCCC[N+](C)(C)CCCS(=O)(=O)[O-])[C@H]1CC[C@H]2[C@@H]3[C@H](O)C[C@@H]4C[C@H](O)CC[C@]4(C)[C@H]3C[C@H](O)[C@]12C [CHAPS, 3-[(3-Cholamidopropyl)dimethylammonio]-1-propanesulfonate]	− − − (Activity < 20%)	− − (Activity 20-50%)	− (Activity 50-60%)	− − (Activity 20-50%)	− (Activity 50-60%)	+ (Activity 60-70%)	− (Activity 50-60%)	− − (Activity 20-50%)	− − (Activity 20-50%)	
C[C@H](CCC(=O)NCCC[N+](C)(C)CC(O)CS(=O)(=O)[O-])[C@H]1CC[C@H]2[C@@H]3[C@H](O)C[C@@H]4C[C@H](O)CC[C@]4(C)[C@H]3C[C@H](O)[C@]12C (stereo partly drawn) [CHAPSO, 3-[(3-Cholamidopropyl)dimethylammonio]-2-hydroxy-1-propanesulfonate]	− − − (Activity < 20%)	− − (Activity 20-50%)	− − (Activity 20-50%)	− − − (Activity < 20%)	− − (Activity 20-50%)	+ (Activity 60-70%)	− (Activity 50-60%)	− − (Activity 20-50%)	− − (Activity 20-50%)	
CC1=NCC[C@@H](C(=O)O)N1 [Ectoin]	− − − (Activity < 20%)		− − − (Activity < 20%)	− − − (Activity < 20%)		− − − (Activity < 20%)	− − − (Activity < 20%)		− − − (Activity < 20%)	Taq Δ271 F667Y E681W activity relative to 0.5% each NP-40 and Tween 20 [1, 7]: − − − (Activity < 20%); Taq Δ271 F667Y activity relative to 0.5% each NP-40 and Tween 20 [2, 7]: − − − (Activity < 20%); Tth Δ273 F668Y activity relative to 0.5% each NP-40 and Tween 20 [3, 7]: − − − (Activity < 20%)
CC1=NC[C@H](O)[C@@H](C(=O)O)N1 [Hydroxyectoin]	− − − (Activity < 20%)	− − − (Activity < 20%)		− − − (Activity < 20%)	− − − (Activity < 20%)		− − − (Activity < 20%)	− − − (Activity < 20%)		
CCCCCCCC(=O)N(C)C[C@H](O)[C@@H](O)[C@H](O)[C@H](O)CO [Mega-8, Ocatanoyl-N-mehtylglucamide]	− − − (Activity < 20%)		− (Activity 50-60%)			+ + (Activity 70-80%)			+ + (Activity 70-80%)	Taq Δ271 F667Y E681W activity relative to 0.5% each NP-40 and Tween 20 [1, 7]: − − − (Activity < 20%); Taq Δ271 F667Y E681W activity relative to 0.5% each NP-40 and Tween 20 [1, 8]: + + + (Activity > 80% (relative to activity using 0.5% each NP-40 and Tween 20)); Taq Δ271 F667Y E681W activity relative to 0.5% each NP-40 and Tween 20 [1, 9]: − − (Activity 20-50%); Polymerase B Activity (%) ([1]; detergent 0.5% (w/v)): 71%; Taq Δ271 F667Y activity relative to 0.5% each NP-40 and Tween 20 [2, 9]: + (Activity 60-70%); Polymerase A Activity (%) ([2]; detergent 0.5% (w/v)): 76.6%; Tth Δ273 F668Y activity relative to 0.5% each NP-40 and Tween 20 [3, 8]: + (Activity 60-70%); Tth Δ273 F668Y activity relative to 0.5% each NP-40 and Tween 20 [3, 9]: + (Activity 60-70%); Polymerase C Activity (%) ([3]; detergent 0.5% (w/v)): 84.5%
CCCCCCCCC(=O)N(C)C[C@H](O)[C@@H](O)[C@H](O)[C@H](O)CO [Mega-9, Nonyl-N-methylglucamide]	− − − (Activity < 20%)	+ + (Activity 70-80%)		− − − (Activity < 20%)	− − (Activity 20-50%)		− − (Activity 20-50%)	+ + + (Activity > 80% (relative to activity using 0.5% each NP-40 and Tween 20))		Polymerase B Activity (%) ([1]; detergent 0.05% (w/v)): 82%; Polymerase A Activity (%) ([2]; detergent 0.05% (w/v)): 71.2%; Polymerase C Activity (%) ([3]; detergent 0.05% (w/v)): 74%
CCCCCCCCCC(=O)N(C)C[C@H](O)[C@@H](O)[C@H](O)[C@H](O)CO [Mega-10, D-decanoyl-N-methyl glucamide]	− − − (Activity < 20%)	+ + + (Activity > 80% (relative to activity using 0.5% each NP-40 and Tween 20))		− − (Activity 20-50%)	+ + (Activity 70-80%)		+ + (Activity 70-80%)	− − (Activity 20-50%)		Polymerase B Activity (%) ([1]; detergent 0.05% (w/v)): 73%; Taq Δ271 F667Y activity relative to 0.5% each NP-40 and Tween 20 [2, 7]: − − − (Activity < 20%); Polymerase A Activity (%) ([2]; detergent 0.05% (w/v)): 94%; Tth Δ273 F668Y activity relative to 0.5% each NP-40 and Tween 20 [3, 7]: − − (Activity 20-50%); Polymerase C Activity (%) ([3]; detergent 0.05% (w/v)): 100%
CCCCCCCCO[C@@H]1O[C@H](CO)[C@H](O)[C@H](O)[C@H]1O [N-octyl β-D-galactopyranoside]	− − − (Activity < 20%)		− (Activity 50-60%)	− − − (Activity < 20%)	− − (Activity 20-50%)		− − (Activity 20-50%)	+ + + (Activity > 80% (relative to activity using 0.5% each NP-40 and Tween 20))		Taq Δ271 F667Y E681W activity relative to 0.5% each NP-40 and Tween 20 ([1]; additive final concentration 0.25% (w/v)): + (Activity 60-70%); Taq Δ271 F667Y E681W activity relative to 0.5% each NP-40 and Tween 20 [1, 8]: − − − (Activity < 20%); Taq Δ271 F667Y activity relative to 0.5% each NP-40 and Tween 20 [2, 7]: − − − (Activity < 20%); Tth Δ273 F668Y activity relative to 0.5% each NP-40 and Tween 20 [3, 7]: − − (Activity 20-50%)
CCCCCCCCCCCCCC[N+](C)(C)CCCS(=O)(=O)[O-] [Zwittergent 3-14]	− − − (Activity < 20%)									
Bovine Serum Albumin (BSA): Bovine Serum Albumin										Taq Δ271 F667Y activity relative to 0.5% each NP-40 and Tween 20 [2, 10]: − (Activity 50-60%); Tth Δ273 F668Y activity relative to 0.5% each NP-40 and Tween 20 [3, 10]: − − (Activity 20-50%)
E. coli Single-Stranded DNA Binding Protein: E. coli Single-Stranded DNA Binding Protein										Tth Δ273 F668Y activity relative to 0.5% each NP-40 and Tween 20 [3, 11]: − − − (Activity < 20%); Tth Δ273 F668Y activity relative to 0.5% each NP-40 and Tween 20 [3, 12]: − − − (Activity < 20%)
gelatin										Tth Δ273 F668Y activity relative to 0.5% each NP-40 and Tween 20 ([3]; additive final concentration 50 μg/ml): − − − (Activity < 20%)
B1										Tth Δ273 F668Y activity relative to 0.5% each NP-40 and Tween 20 [3, 11]: − − − (Activity < 20%); Tth Δ273 F668Y activity relative to 0.5% each NP-40 and Tween 20 [3, 12]: − − − (Activity < 20%)
